Results: ChEMBL document CHEMBL4800722, “Data for DCP probe BI 605906” (2021)

Assays:
[1] = target: Cyclin-G-associated kinase (Homo sapiens, UniProt O14976); assay: Dose response measurement (GAK)
[2] = target: Bone morphogenetic protein receptor type-2 (Homo sapiens) (UniProt Q13873); assay: BMPR2 Invitrogen Lab (UK) kinase screen (BI); settings: Compound concentration 1.0 uM
[3] = target: Serine/threonine-protein kinase BRSK2 (Homo sapiens) (UniProt Q8IWQ3); assay: BRSK2 Invitrogen Lab (UK) kinase screen (BI); settings: Compound concentration 1.0 uM
[4] = target: CDK2/Cyclin O (Homo sapiens) (UniProt P24941+P22674); assay: CDK2/CYCLIN O Invitrogen Lab (UK) kinase screen (BI); format: protein-complex assay; settings: Compound concentration 1.0 uM
[5] = target: Inhibitor of nuclear factor kappa-B kinase subunit alpha (Homo sapiens) (UniProt O15111); assay: CHUK_IKKA Invitrogen Lab (UK) kinase screen (BI)
[6] = target: Dual specificity protein kinase CLK4 (Homo sapiens) (UniProt Q9HAZ1); assay: CLK4 Invitrogen Lab (UK) kinase screen (BI); settings: Compound concentration 1.0 uM
[7] = target: Epithelial discoidin domain-containing receptor 1 (Homo sapiens) (UniProt Q08345); assay: DDR1 Invitrogen Lab (UK) kinase screen (BI); settings: Compound concentration 1.0 uM
[8] = target: Tyrosine-protein kinase Fgr (Homo sapiens) (UniProt P09769); assay: FGR Invitrogen Lab (UK) kinase screen (BI); settings: Compound concentration 1.0 uM
[9] = target: Tyrosine-protein kinase ITK/TSK (Homo sapiens) (UniProt Q08881); assay: ITK Invitrogen Lab (UK) kinase screen (BI); settings: Compound concentration 1.0 uM
[10] = target: Serine/threonine-protein kinase Chk2 (Homo sapiens) (UniProt O96017); assay: CHK2 DUNDEE kinase screen (BI); settings: Compound concentration 10.0 uM
[11] = target: Mitogen-activated protein kinase 15 (Homo sapiens) (UniProt Q8TD08); assay: ERK8 DUNDEE kinase screen (BI); settings: Compound concentration 10.0 uM
[12] = target: Glycogen synthase kinase-3 beta (Homo sapiens) (UniProt P49841); assay: GSK3B DUNDEE kinase screen (BI); settings: Compound concentration 10.0 uM
Homo sapiens = species on record: Homo sapiens; assay: PKBDPH (PKB delta PH) DUNDEE kinase screen (BI); settings: Compound concentration 10.0 uM
[13] = target: 5-hydroxytryptamine receptor 7 (Homo sapiens) (UniProt P34969); settings: Compound concentration 10.0 uM
[14] = target: Histamine H1 receptor (Homo sapiens) (UniProt P35367); settings: Compound concentration 10.0 uM
Rattus norvegicus = species on record: Rattus norvegicus; settings: Compound concentration 10.0 uM
[15] = target: T1, D(4) dopamine receptor (Homo sapiens) (UniProt P21917); settings: Compound concentration 10.0 uM
T1 sequence (whole entry): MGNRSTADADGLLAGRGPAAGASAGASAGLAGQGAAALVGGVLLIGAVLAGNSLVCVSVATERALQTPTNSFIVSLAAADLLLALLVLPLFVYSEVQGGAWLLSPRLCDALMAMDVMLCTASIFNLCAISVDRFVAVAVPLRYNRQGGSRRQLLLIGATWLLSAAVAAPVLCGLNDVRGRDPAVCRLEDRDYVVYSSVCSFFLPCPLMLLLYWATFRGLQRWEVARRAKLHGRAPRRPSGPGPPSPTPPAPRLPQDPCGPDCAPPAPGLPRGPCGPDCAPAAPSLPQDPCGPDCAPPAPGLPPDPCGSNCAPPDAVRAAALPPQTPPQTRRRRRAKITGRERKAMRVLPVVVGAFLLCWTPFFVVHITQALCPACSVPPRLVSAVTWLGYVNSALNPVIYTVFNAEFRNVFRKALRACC

[16] = target: Histamine H2 receptor (Homo sapiens) (UniProt P25021); settings: Compound concentration 10.0 uM
[17] = target: Nitric oxide synthase, inducible (Mus musculus) (UniProt P29477); settings: Compound concentration 10.0 uM
[18] = target: Interferon-induced, double-stranded RNA-activated protein kinase (Homo sapiens) (UniProt P19525); settings: Compound concentration 1.0 uM
[19] = target: Membrane-associated tyrosine- and threonine-specific cdc2-inhibitory kinase (Homo sapiens) (UniProt Q99640); settings: Compound concentration 1.0 uM
[20] = target: Receptor-interacting serine/threonine-protein kinase 3 (Homo sapiens) (UniProt Q9Y572); settings: Compound concentration 1.0 uM
[21] = target: Serine/threonine-protein kinase tousled-like 2 (Homo sapiens) (UniProt Q86UE8); settings: Compound concentration 1.0 uM
[22] = target: Non-receptor tyrosine-protein kinase TNK1 (Homo sapiens) (UniProt Q13470); settings: Compound concentration 1.0 uM
[23] = target: RAC-beta serine/threonine-protein kinase (Homo sapiens) (UniProt P31751); settings: Compound concentration 1.0 uM
[24] = target: Serine/threonine-protein kinase DCLK2 (Homo sapiens) (UniProt Q8N568); settings: Compound concentration 1.0 uM
[25] = target: Epidermal growth factor receptor (Homo sapiens) (UniProt P00533)
[26] = target: Mitogen-activated protein kinase kinase kinase kinase 2 (Homo sapiens) (UniProt Q12851); settings: Compound concentration 1.0 uM
[27] = target: MAP kinase-activated protein kinase 2 (Homo sapiens) (UniProt P49137)
[28] = target: Megakaryocyte-associated tyrosine-protein kinase (Homo sapiens) (UniProt P42679); settings: Compound concentration 1.0 uM
[29] = target: Serine/threonine-protein kinase PAK 1 (Homo sapiens) (UniProt Q13153); settings: Compound concentration 1.0 uM
[30] = target: Serine/threonine-protein kinase PAK 5 (Homo sapiens) (UniProt Q9P286); settings: Compound concentration 1.0 uM
[31] = target: Platelet-derived growth factor receptor alpha (Homo sapiens) (UniProt P16234); settings: Compound concentration 1.0 uM
[32] = target: Phosphatidylinositol 4-phosphate 3-kinase C2 domain-containing subunit beta (Homo sapiens) (UniProt O00750); settings: Compound concentration 1.0 uM
[33] = target: Serine/threonine-protein kinase pim-1 (Homo sapiens) (UniProt P11309)
[34] = target: Serine/threonine-protein kinase PLK3 (Homo sapiens) (UniProt Q9H4B4); settings: Compound concentration 1.0 uM
[35] = target: Focal adhesion kinase 1 (Homo sapiens) (UniProt Q05397); settings: Compound concentration 1.0 uM
[36] = target: Serine/threonine-protein kinase 24 (Homo sapiens) (UniProt Q9Y6E0); settings: Compound concentration 1.0 uM
[37] = target: Phosphatidylinositol 4-kinase type 2-beta (Homo sapiens) (UniProt Q8TCG2); assay: PI4K2B Invitrogen Lab (UK) kinase screen (BI); settings: Compound concentration 1.0 uM

Sequence of MAP kinase-activated protein kinase 2 (Homo sapiens) (P49137 whole entry, looked up): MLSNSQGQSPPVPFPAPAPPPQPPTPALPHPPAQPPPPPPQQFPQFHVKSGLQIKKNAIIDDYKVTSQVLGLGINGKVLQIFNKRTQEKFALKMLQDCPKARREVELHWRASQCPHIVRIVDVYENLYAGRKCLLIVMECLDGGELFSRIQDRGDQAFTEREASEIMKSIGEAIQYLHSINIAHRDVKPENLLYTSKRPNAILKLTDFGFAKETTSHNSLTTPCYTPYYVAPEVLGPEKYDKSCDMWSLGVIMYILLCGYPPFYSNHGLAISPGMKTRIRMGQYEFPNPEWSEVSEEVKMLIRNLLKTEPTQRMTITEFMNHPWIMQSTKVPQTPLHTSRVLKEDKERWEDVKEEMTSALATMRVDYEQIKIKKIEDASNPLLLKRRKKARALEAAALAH
Sequence of Serine/threonine-protein kinase pim-1 (Homo sapiens) (P11309 whole entry, looked up): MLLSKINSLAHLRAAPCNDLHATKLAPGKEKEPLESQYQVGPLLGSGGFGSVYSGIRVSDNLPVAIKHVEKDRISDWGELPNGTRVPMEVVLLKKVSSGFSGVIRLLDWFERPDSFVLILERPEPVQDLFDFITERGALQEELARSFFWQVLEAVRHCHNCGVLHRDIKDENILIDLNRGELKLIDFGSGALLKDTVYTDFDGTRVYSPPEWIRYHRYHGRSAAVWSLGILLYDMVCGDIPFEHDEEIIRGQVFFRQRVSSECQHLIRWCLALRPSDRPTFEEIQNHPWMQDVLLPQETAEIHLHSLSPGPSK
Sequence of Inhibitor of nuclear factor kappa-B kinase subunit alpha (Homo sapiens) (O15111 whole entry): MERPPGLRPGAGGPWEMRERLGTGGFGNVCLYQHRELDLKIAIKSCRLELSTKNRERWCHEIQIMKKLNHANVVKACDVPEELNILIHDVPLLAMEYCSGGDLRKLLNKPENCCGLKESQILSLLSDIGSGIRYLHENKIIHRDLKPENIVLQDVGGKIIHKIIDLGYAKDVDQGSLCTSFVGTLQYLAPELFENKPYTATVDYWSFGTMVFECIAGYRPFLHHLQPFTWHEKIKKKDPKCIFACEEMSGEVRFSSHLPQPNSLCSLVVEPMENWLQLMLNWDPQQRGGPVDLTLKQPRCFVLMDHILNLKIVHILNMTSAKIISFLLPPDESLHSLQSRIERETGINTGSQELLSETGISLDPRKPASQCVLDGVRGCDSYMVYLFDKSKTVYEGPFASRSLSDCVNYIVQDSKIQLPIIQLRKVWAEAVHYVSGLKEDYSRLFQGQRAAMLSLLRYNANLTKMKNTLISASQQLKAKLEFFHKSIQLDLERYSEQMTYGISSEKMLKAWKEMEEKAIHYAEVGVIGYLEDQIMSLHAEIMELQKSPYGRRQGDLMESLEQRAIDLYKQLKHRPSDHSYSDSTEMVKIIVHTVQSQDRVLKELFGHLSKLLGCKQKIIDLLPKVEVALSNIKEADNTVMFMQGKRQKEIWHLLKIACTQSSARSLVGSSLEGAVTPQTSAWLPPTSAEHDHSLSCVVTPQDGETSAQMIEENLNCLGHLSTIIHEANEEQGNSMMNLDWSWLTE
Sequence of Epidermal growth factor receptor (Homo sapiens) (P00533 whole entry): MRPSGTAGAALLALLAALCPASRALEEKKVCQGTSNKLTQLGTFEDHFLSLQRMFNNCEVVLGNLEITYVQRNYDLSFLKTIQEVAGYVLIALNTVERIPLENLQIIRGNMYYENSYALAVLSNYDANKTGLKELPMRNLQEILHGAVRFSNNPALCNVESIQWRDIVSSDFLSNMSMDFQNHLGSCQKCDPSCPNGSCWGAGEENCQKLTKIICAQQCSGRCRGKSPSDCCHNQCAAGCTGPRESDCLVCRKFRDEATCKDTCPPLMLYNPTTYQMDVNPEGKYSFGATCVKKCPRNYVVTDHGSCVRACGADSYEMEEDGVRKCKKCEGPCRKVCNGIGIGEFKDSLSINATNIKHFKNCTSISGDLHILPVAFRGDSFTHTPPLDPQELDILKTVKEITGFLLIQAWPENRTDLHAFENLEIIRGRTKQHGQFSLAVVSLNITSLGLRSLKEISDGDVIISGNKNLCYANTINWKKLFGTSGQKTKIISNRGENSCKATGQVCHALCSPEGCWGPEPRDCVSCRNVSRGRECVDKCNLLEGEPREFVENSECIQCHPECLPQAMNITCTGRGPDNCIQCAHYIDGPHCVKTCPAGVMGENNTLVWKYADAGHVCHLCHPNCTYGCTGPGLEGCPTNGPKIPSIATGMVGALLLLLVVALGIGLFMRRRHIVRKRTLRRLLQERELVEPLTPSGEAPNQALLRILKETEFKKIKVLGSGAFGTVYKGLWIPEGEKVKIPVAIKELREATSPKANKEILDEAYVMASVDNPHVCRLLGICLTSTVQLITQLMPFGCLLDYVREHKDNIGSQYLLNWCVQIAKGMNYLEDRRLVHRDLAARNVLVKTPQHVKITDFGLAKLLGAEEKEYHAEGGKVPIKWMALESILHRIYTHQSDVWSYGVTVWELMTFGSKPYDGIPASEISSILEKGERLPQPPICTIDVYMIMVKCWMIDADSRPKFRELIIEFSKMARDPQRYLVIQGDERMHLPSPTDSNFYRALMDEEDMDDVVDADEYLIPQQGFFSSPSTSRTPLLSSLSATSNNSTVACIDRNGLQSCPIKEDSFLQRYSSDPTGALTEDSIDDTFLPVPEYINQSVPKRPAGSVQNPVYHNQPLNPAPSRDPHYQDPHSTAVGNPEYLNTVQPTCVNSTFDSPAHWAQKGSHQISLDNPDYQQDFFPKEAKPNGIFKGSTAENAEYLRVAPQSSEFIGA
Sequence of Dual specificity protein kinase CLK4 (Homo sapiens) (Q9HAZ1 whole entry, looked up, the tested form may be a part): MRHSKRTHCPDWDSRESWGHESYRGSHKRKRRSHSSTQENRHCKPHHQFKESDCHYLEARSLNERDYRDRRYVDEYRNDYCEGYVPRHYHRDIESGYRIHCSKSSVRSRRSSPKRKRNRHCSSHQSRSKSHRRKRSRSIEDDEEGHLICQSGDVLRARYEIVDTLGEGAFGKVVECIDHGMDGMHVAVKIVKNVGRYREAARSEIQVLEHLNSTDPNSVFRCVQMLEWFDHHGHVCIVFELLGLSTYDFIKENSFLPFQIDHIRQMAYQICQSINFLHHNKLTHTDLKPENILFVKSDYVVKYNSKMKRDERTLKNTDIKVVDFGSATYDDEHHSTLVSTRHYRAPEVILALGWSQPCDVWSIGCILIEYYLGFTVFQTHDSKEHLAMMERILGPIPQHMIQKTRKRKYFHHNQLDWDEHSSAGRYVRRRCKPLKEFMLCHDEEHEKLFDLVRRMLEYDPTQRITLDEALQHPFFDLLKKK
Sequence of Cyclin-G-associated kinase (O14976 whole entry): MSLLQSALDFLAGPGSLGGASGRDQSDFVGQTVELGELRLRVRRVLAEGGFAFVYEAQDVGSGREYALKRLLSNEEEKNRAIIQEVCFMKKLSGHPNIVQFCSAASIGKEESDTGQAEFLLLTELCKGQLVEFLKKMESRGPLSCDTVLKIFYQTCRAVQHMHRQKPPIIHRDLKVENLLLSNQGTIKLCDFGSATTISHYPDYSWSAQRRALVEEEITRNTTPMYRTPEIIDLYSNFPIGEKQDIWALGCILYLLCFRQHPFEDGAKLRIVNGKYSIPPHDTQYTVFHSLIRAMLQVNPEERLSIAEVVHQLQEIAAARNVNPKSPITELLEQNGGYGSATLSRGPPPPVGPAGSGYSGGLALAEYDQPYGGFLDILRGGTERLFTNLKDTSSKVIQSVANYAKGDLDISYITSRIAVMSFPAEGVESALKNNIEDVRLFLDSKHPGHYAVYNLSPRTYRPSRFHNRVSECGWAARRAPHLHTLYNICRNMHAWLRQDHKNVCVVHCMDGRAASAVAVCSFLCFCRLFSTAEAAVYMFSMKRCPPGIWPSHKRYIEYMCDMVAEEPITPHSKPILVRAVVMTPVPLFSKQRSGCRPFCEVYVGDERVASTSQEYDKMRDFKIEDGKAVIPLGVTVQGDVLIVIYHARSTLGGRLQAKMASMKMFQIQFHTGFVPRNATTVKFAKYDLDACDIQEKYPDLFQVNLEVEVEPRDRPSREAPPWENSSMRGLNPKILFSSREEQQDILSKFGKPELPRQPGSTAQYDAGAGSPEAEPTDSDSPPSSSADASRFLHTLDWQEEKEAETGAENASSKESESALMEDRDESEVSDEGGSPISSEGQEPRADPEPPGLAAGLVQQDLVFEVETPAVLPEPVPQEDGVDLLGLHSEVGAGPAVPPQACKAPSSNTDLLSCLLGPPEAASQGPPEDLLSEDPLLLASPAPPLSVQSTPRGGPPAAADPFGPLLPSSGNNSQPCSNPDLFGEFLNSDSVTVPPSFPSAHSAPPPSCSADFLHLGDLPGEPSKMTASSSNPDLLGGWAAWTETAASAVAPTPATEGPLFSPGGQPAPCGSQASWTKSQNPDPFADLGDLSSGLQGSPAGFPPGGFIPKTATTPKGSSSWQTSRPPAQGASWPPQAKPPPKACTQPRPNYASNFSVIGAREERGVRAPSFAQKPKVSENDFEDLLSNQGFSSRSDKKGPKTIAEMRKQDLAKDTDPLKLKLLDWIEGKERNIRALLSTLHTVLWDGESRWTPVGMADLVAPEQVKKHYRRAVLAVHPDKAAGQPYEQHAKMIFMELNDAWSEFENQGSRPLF
Sequence of Serine/threonine-protein kinase Chk2 (Homo sapiens) (O96017 whole entry): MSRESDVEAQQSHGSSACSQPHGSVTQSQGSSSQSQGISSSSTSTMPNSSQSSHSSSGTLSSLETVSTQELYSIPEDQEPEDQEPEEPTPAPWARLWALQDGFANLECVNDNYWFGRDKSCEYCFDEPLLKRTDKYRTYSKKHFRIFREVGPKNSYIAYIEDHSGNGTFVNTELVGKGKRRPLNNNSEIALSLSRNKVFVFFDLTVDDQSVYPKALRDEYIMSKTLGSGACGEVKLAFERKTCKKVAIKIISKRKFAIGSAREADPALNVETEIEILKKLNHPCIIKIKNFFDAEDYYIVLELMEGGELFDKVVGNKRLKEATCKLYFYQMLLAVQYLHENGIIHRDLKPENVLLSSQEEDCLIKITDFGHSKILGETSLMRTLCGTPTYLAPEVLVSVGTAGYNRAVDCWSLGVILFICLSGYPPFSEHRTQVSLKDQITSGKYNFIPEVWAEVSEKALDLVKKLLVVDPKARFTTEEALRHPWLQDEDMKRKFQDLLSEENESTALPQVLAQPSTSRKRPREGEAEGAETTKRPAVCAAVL

## CCC(F)(F)c1cc(N2CCC(S(C)(=O)=O)CC2)nc2sc(C(N)=O)c(N)c12 [BI-605906]
[1]
  IC50: 188 nM
[2]
  residual activity: 65%
[3]
  residual activity: 102%
[4]
  residual activity: 81%
[5]; Compound concentration 1.0 uM
  residual activity: 67%
[5]; Compound concentration 10.0 uM
  residual activity: 27%
[6]
  residual activity: 69%
[7]
  residual activity: 84%
[8]
  residual activity: 78%
[9]
  residual activity: 107%
[10]
  residual activity: 49.7%
[11]
  residual activity: 63.2%
[12]
  residual activity: 74.4%
Homo sapiens
  residual activity: 75.6%
[13]
  inhibition: 13.7%
[14]
  inhibition: 9.22%
Rattus norvegicus
  inhibition: 51.9%
[15]
  residual activity: 95%
[16]
  residual activity: 94%
[17]
  residual activity: 108%
[18]
  residual activity: 96%
[19]
  residual activity: 90%
[20]
  residual activity: 100%
[21]
  residual activity: 98%
[22]
  residual activity: 92%
[23]
  residual activity: 95%
[24]
  residual activity: 101%
[25]; Compound concentration 1.0 uM
  residual activity: 99%
[25]; Compound concentration 10.0 uM
  residual activity: 90%
[26]
  residual activity: 99%
[27]; Compound concentration 1.0 uM
  residual activity: 93%
[27]; Compound concentration 10.0 uM
  residual activity: 87%
[28]
  residual activity: 101%
[29]
  residual activity: 98%
[30]
  residual activity: 93%
[31]
  residual activity: 93%
[32]
  residual activity: 101%
[33]; Compound concentration 1.0 uM
  residual activity: 90%
[33]; Compound concentration 10.0 uM
  residual activity: 99%
[34]
  residual activity: 93%
[35]
  residual activity: 87%
[36]
  residual activity: 101%
[37]
  residual activity: 102%
